The values that follow come from USRE38117E1, “Trioxane dimer compound having antiproliferative and antitumor activities” (Hauser, Inc., priority 1995, dated 2003).

The test system of assay [1] is murine keratinocyte cell line PE. The assay can be described thus: Growth inhibition of PE cells (MTT assay). It is filed as cell-based. The settings on record: murine keratinocytes, FIGS. 1-9. The protocol:
To determine the inhibitory effect of the trioxane dimers of the present invention on cell proliferation, screening assays were performed on a murine keratinocyte cell line PE. […] PE cell culture medium consisted of Eagle's minimal essential medium without calcium chloride (Whittaker Bioproducts, Walkersville, Ma.) supplemented with 8% chelexed fetal calf serum and 1% antibiotic-antimycotic (Gibco BRL) and the addition of CaCl2 to 0.05 mM Ca^++. […] (St. Louis, Mo.), and TPA was supplied by L. C. Services (Woburn, Ma.). L-[^14C]ornithine ([…]) was from Amersham/Searle Corp. (Arlington Heights, Ill.). Chemical solvents used in all assays of biological activity were of the highest grade commercially available. Growth Inhibition. […] A mitochondrial dehydrogenase reduces MTT to a blue formazan product with an absorbance maximum of 505 nm in DMSO; the number of viable cells can thus be determined spectrophotometrically. PE cells were seeded at a density of 5,000 cells/well in 50 μL of medium into 96-well microtiter plates. […] The plates were fed once at 48 h, with the readdition of the vitamin D3 analogs at this time. […] After 4 h, the MTT was removed and DMSO added to dissolve the blue formazan dye. Using a microtiter plate reader, the […] was then determined and cell number calculated from blank-subtracted absorbance values.
(In general: Tetrazolium assays rely on reduction of a dye to a coloured formazan, in cell work by metabolically active cells.)

The test system of another assay is P. berghei. The following applies: Klayman 1985; cited from earlier work.
The subject of assay [2] is murine keratinocyte cell line PE. The assay can be described thus: Viability of PE cells by trypan blue exclusion. It is filed as cell-based. The following applies: 96 h.

As for “4β-Hydroxymethyl Trioxane Terephthalate Dimer [Compound 24]”, the antiproliferative activity entry in assay [1] was “significant antiproliferative activity”.

For `COC1OC2(C)CCC3CCCC(CCOC(=O)CCCC(=O)OCCC4CCCC5CCC6(C)OOC45C(OC)O6)C31OO2` (stereo not drawn) [Compound 15, Trioxane Bis-ester Dimer], in assay [1], the antiproliferative activity result was “the most active”.

For `COC1OC2(C)CCC3CCCC(CCOP(=O)(OCCC4CCCC5CCC6(C)OOC45C(OC)O6)Oc4ccccc4)C31OO2` (stereo not drawn) [Compound 20, Bis-trioxane phosphate ester], the antiproliferative activity entry in assay [1] was “Neither phosphate dimers 20, and 21 nor phosphonate dimer 22 has significant antiproliferative activity”.

With `COC1OC2(C)CCC3CCCC(CCOP(=O)(OC)OCCC4CCCC5CCC6(C)OOC45C(OC)O6)C31OO2` (stereo not drawn) [Compound 21, Bis-trioxane phosphate ester], the antiproliferative activity result in assay [1] is “Neither phosphate dimers 20, and 21 nor phosphonate dimer 22 has significant antiproliferative activity”.

`CC1=CO[C@@H]2O[C@]3(C)CC[C@H]4[C@H](C)CC[C@@H]1[C@@]24OO3` [III]: the “activity against P. berghei-infected mice” value with P. berghei is “inactive”.

As to `C=C1/C(=C\C=C2/CCC[C@]3(C)[C@@H]([C@H](C)CCCC(C)(C)O)CC[C@@H]23)C[C@@H](O)C[C@@H]1O` [calcitriol, 1α, 25-dihydroxyvitamin D3], in assay [2], the “viability of the cells” value is on record as “identical to control cells”.
